Results: patent publication US7612087B2, “Heterocyclic compounds as inhibitors of beta-lactamases” (Novexel, priority 2002, dated 2009)
Like-named read-outs stand apart in the source and are kept apart here. One block for each molecule: values may come before it.

How the values were obtained:
E. coli 250CF1 (Tem3) = test: microbe, parasite or virus in culture; type: cell-based; settings: 24 hours at 37° C.; for MIC: Escherichia coli
Protocol: (§1) The operation is carried out as follows, using the so-called micro-dilution in liquid medium method.
(§2) A series of concentrations of the β-lactamine is prepared in the presence of a constant concentration (5 mg/l) of the product to be studied, each is then seeded with various bacterial strains.
(§3) After incubation for 24 hours in a heating chamber at 37° C., the growth inhibition is evaluated by the absence of any bacterial development, which allows the minimal inhibitory concentrations (MIC) for each strain to be determined, expressed in milligrams/l.

[1] = test system: E. cloacae 293HT6 (Class C); test: MIC, micro-dilution in liquid medium, β-lactamine with product at 5 mg/l; type: cell-based; settings: 24 hours at 37° C.; for MIC: Enterobacter cloacae
Protocol: as §1, §2, §3

E. coli 250BE1 (SHV4) = test: as above; type: cell-based; settings: 24 hours at 37° C.; for MIC: Escherichia coli
Protocol: as §1, §2, §3

E. coli 250HT21 (Tem1) = test: as above; type: cell-based; settings: 24 hours at 37° C.; for MIC: Escherichia coli
Protocol: as §1, §2, §3

E. coli 250HT22 (Tem2) = test: as above; type: cell-based; settings: 24 hours at 37° C.; for MIC: Escherichia coli
Protocol: as §1, §2, §3

[2] = test system: E. coli 250HT23 (Class D); test: as above; type: cell-based; settings: 24 hours at 37° C.; for MIC: Escherichia coli
Protocol: as §1, §2, §3

E. coli 250HT26 (SHV1) = test: as above; type: cell-based; settings: 24 hours at 37° C.; for MIC: Escherichia coli
Protocol: as §1, §2, §3

E. coli 250SJ1 (Tem7) = test: as above; type: cell-based; settings: 24 hours at 37° C.; for MIC: Escherichia coli
Protocol: as §1, §2, §3

[3] = test system: P. aeruginosa 391HT7 (PSE); test: as above; type: cell-based; settings: Pseudomonas aeruginosa, 24 hours at 37° C.
Protocol: as §1, §2, §3

[4] = test system: P. aeruginosa 391HT8 (PSE); test: as above; type: cell-based; settings: Pseudomonas aeruginosa, 24 hours at 37° C.
Protocol: as §1, §2, §3

[5] = test system: S. aureus 011GO66 (PeniR); test: as above; type: cell-based; settings: 24 hours at 37° C.; for MIC: Staphylococcus aureus
Protocol: as §1, §2, §3

Serratia 301HT6 = test: as above; type: cell-based; settings: Trial 10, 301HT6 Serratia, 24 hours at 37° C.
Protocol: as §1, §2, §3

β-lactamase TEM1 = target: T1, β-lactamase TEM1 (Escherichia coli, UniProt P62593); test: Inhibition of isolated β-lactamase Tem-1 (Nitrocefin hydrolysis); type: biochemical, E.coli 250HT21; settings: 100 μM Nitrocefin, 50 mM sodium phosphate buffer pH7.0, 37° C.
T1 construct: The β-lactamases are isolated from bacterial strains which are resistant to penicillins and cephalosporins; endogenous in cells; host or cells: E. coli 250HT21 (natural producer; French-press lysate, 100,000 g supernatant)
Protocol: (§4) A. Preparation of the β-lactamases Tem-1 and P99
(§5) The β-lactamases are isolated from bacterial strains which are resistant to penicillins and cephalosporins (Tem1 and P99 are produced by E.coli 250HT21 and E.Cloacae 293HT6 respectively).
(§6) The bacteria are cultured at 37° C. in heart-brain culture at 37 g/l (DIFCO). They are harvested at the end of the exponential phase, cooled down and centrifuged. The bacterial pellets are taken up in sodium phosphate buffer 50 mM, pH 7.0 and centrifuged again. The bacteria are taken up in two volumes of the same buffer and lyzed using a French-Press maintained at 4° C. After centrifugation for 1 hour at 100,000 g, at 4° C., the supernatants containing the soluble fraction of the bacterial extracts are recovered and frozen at −80° C.
(§7) The method uses Nitrocefin (OXOID), cephalosporin chromogene as substrate, of which the product hydrolyzed by the B-lactamases is red and absorbs at 485 nm. Beta-lactamase activity is determined kinetically by measurement of the absorbance variation at 485 nm resulting from the hydrolysis of the substrate using a plate spectrophotometer (Spectra Max More Molecular Devices). The experiments are carried out at 37° C. The quantity of enzyme was normalized and the measurements are carried out at initial speed.
(§8) Two measurements were carried out, without preincubation and with preincubation of the enzyme and inhibitor (5 mn), in order to test the irreversibility of the reaction. The products are tested at 6 or 8 concentrations in duplicate. The reaction mixture contains 100 μM of Nitrocefin and 50 mM sodium phosphate buffer pH7.0.
(§9) The hydrolysis speeds are measured with and without inhibitor. The concentration of inhibitor which inhibits by 50% the hydrolysis reaction of Nitrocefin by the enzyme (CI50) is determined. The data is processed using GraFit software (Erathycus Software).

β-lactamase P99 = target: T2, β-lactamase P99 (Enterobacter cloacae, UniProt P05364); test: biochemical; settings: 100 μM Nitrocefin, 50 mM sodium phosphate buffer pH7.0, 37° C.; read-out: IC50 nM/P99
T2 construct: The β-lactamases are isolated from bacterial strains which are resistant to penicillins and cephalosporins; endogenous in cells; host or cells: Enterobacter cloacae 293HT6 (natural producer; French-press lysate, 100,000 g supernatant)
Protocol: as §4, §5, §6, §7, §8, §9

T2 sequence (P05364 21-381): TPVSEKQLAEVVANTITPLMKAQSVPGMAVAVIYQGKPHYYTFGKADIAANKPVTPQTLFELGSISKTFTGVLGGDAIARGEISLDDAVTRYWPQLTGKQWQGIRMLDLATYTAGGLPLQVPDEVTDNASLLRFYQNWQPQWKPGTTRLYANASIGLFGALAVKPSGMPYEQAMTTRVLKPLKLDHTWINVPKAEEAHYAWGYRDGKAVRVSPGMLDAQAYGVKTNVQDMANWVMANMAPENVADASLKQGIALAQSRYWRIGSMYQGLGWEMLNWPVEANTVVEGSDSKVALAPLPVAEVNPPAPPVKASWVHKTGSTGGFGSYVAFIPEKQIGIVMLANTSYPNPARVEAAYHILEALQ
T1 sequence (P62593 24-286 limits assumed): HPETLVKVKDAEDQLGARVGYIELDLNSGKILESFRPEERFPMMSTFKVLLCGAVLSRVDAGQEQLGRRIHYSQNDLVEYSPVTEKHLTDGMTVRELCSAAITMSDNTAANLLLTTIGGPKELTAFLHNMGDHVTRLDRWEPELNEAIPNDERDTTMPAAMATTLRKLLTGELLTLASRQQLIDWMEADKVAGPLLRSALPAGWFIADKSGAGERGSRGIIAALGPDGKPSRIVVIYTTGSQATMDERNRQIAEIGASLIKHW

- MIC (E. coli 250CF1 (Tem3); Trial 4, 250CF1 Tem3, read-out: MIC of Piperacillin alone): > 40 µg/mL
- MIC (E. coli 250BE1 (SHV4); Trial 7, 250BE1 SHV4, read-out: MIC of Piperacillin alone): > 40 µg/mL
- MIC (E. coli 250HT21 (Tem1); Trial 2, 250HT21 Tem1, read-out: MIC of Piperacillin alone): > 40 µg/mL
- MIC (E. coli 250HT22 (Tem2); Trial 3, 250HT22 Tem2, read-out: MIC of Piperacillin alone): > 40 µg/mL
- MIC ([2]; Trial 8, 250HT23 Class D, read-out: MIC of Piperacillin alone): > 40 µg/mL
- MIC (E. coli 250HT26 (SHV1); Trial 6, 250HT26 SHV1, read-out: MIC of Piperacillin alone): > 40 µg/mL
- MIC (E. coli 250SJ1 (Tem7); Trial 5, 250SJ1 Tem7, read-out: MIC of Piperacillin alone): > 40 µg/mL
- MIC ([3]; Trial 11, 391HT7 PSE, read-out: MIC of Piperacillin alone): > 40 µg/mL
- MIC ([4]; Trial 12, 391HT8 PSE, read-out: MIC of Piperacillin alone): > 40 µg/mL
- MIC ([5]; Trial 1, 011GO66 peniR, read-out: MIC of Piperacillin alone): 10 µg/mL
- MIC (Serratia 301HT6; read-out: MIC of Piperacillin alone): 5 µg/mL
SMILES: CCN1CCN(C(=O)N[C@@H](C(=O)N[C@@H]2C(=O)N3[C@@H]2SC(C)(C)[C@@H]3C(=O)O)c2ccccc2)C(=O)C1=O [Piperacillin, piperacillin, reference compound]
- MIC ([1]; Trial 9, 293HT6 Class, read-out: MIC of Piperacillin alone): > 40 µg/mL

SMILES: O=C(OCCc1ccncc1)[C@H]1CC[C@@H]2CN1C(=O)N2OS(=O)(=O)[O-].[Na+] (relative stereo) [Example 49, sodium salt of trans 2-(4-pyridinyl)ethyl 7-oxo-6-(sulphooxy)-1,6-diazabicyclo[3.2.1]octane-2-carboxylate]
- IC50 (β-lactamase TEM1): 8.2 nM
- IC50 (β-lactamase P99): 98 nM
- MIC of Cefotaxime in combination with the compound (E. coli 250CF1 (Tem3); compound at 5 mg/l, Trial 4, 250CF1 E. coli Tem3): 0.08 µg/mL
- MIC of Piperacillin in combination with the compound (E. coli 250CF1 (Tem3); compound at 5 mg/l, Trial 4, 250CF1 Tem3): 1.2 µg/mL
- MIC of Piperacillin in combination with the compound ([1]; compound at 5 mg/l, Trial 9, 293HT6 Class): 10 µg/mL
- MIC of Cefotaxime in combination with the compound (E. coli 250BE1 (SHV4); compound at 5 mg/l, Trial 7, 250BE1 E. coli SHV4): <=0.04 μg/ml
- MIC of Piperacillin in combination with the compound (E. coli 250BE1 (SHV4); compound at 5 mg/l, Trial 7, 250BE1 SHV4): 20 µg/mL
- MIC of Cefotaxime in combination with the compound (E. coli 250HT21 (Tem1); compound at 5 mg/l, Trial 2, 250HT21 E. coli Tem1): <=0.04 μg/ml
- MIC of Piperacillin in combination with the compound (E. coli 250HT21 (Tem1); compound at 5 mg/l, Trial 2, 250HT21 Tem1): 1.2 µg/mL
- MIC of Cefotaxime in combination with the compound (E. coli 250HT22 (Tem2); compound at 5 mg/l, Trial 3, 250HT22 E. coli Tem2): <=0.04 μg/ml
- MIC of Piperacillin in combination with the compound (E. coli 250HT22 (Tem2); compound at 5 mg/l, Trial 3, 250HT22 Tem2): 2.5 µg/mL
- MIC of Piperacillin in combination with the compound ([2]; compound at 5 mg/l, Trial 8, 250HT23 Class D): 10 µg/mL
- MIC of Cefotaxime in combination with the compound ([2]; compound at 5 mg/l, Trial 8, 250HT23 E. coli Class D): <=0.04 μg/ml
- MIC of Cefotaxime in combination with the compound (E. coli 250HT26 (SHV1); compound at 5 mg/l, Trial 6, 250HT26 E. coli SHV1): <=0.04 μg/ml
- MIC of Piperacillin in combination with the compound (E. coli 250HT26 (SHV1); compound at 5 mg/l, Trial 6, 250HT26 SHV1): 20 µg/mL
- MIC of Cefotaxime in combination with the compound (E. coli 250SJ1 (Tem7); compound at 5 mg/l, Trial 5, 250SJ1 E. coli Tem7): <=0.04 μg/ml
- MIC of Piperacillin in combination with the compound (E. coli 250SJ1 (Tem7); compound at 5 mg/l, Trial 5, 250SJ1 Tem7): 5 µg/mL
- MIC of Cefotaxime in combination with the compound ([5]; compound at 5 mg/l, Trial 1, 011GO66 S. aureus PeniR): 2.5 µg/mL
- MIC of Piperacillin in combination with the compound ([5]; compound at 5 mg/l, Trial 1, 011GO66 peniR): 1.2 µg/mL

- MIC (E. coli 250CF1 (Tem3); Trial 4, 250CF1 E. coli Tem3, read-out: MIC of Cefotaxime alone): > 40 µg/mL
- MIC (E. coli 250BE1 (SHV4); Trial 7, 250BE1 E. coli SHV4, read-out: MIC of Cefotaxime alone): 40 µg/mL
- MIC (E. coli 250HT21 (Tem1); Trial 2, 250HT21 E. coli Tem1, read-out: MIC of Cefotaxime alone): ≤ 0.04 µg/mL
- MIC (E. coli 250HT22 (Tem2); Trial 3, 250HT22 E. coli Tem2, read-out: MIC of Cefotaxime alone): ≤ 0.04 µg/mL
- MIC ([2]; Trial 8, 250HT23 E. coli Class D, read-out: MIC of Cefotaxime alone): 0.08 µg/mL
- MIC (E. coli 250HT26 (SHV1); Trial 6, 250HT26 E. coli SHV1, read-out: MIC of Cefotaxime alone): 0.6 µg/mL
- MIC (E. coli 250SJ1 (Tem7); Trial 5, 250SJ1 E. coli Tem7, read-out: MIC of Cefotaxime alone): 0.08 µg/mL
- MIC ([3]; Trial 11, 391HT7 P. aeruginosa PSE, read-out: MIC of Cefotaxime alone): 40 µg/mL
- MIC ([4]; Trial 12, 391HT8 P. aeruginosa PSE, read-out: MIC of Cefotaxime alone): 40 µg/mL
- MIC ([5]; Trial 1, 011GO66 S. aureus PeniR, read-out: MIC of Cefotaxime alone): 1.2 µg/mL
- MIC (Serratia 301HT6; read-out: MIC of Cefotaxime alone): 0.3 µg/mL
SMILES: CO/N=C(\C(=O)N[C@@H]1C(=O)N2C(C(=O)O)=C(COC(C)=O)CS[C@H]12)c1csc(N)n1 [Cefotaxime, cefotaxime, reference compound]
- MIC ([1]; Trial 9, 293HT6 E. cloacae Class C, read-out: MIC of Cefotaxime alone): > 40 µg/mL
